Assay results published in ChEMBL document CHEMBL5321275, “Discovery, Optimization, and Evaluation of Novel N-(Benzimidazol-5-yl)-1,3,4-thiadiazol-2-amine Analogues as Potent STAT3 Inhibitors for Cancer Treatment” (J Med Chem, 2023).
Values after ≈ are worked out from the molar mass of the structure shown. Active and inactive are the calls of the source. The rule behind the calls is not given here.

Columns and labels:
[1] = Cmax in ICR mouse at 5 mg/kg, iv measured upto 96 hrs by HPLC-MS/MS analysis; type: ADME, organism-based; design: dose 5 mg/kg, time < 96 hrs, route iv; conditions: in vivo
[2] = AUC (0 to t) in ICR mouse at 5 mg/kg, iv measured upto 96 hrs by HPLC-MS/MS analysis; type: ADME, organism-based; design: time < 96 hrs, dose 5 mg/kg, route iv; conditions: in vivo
[3] = AUC (0 to t) in ICR mouse at 50 mg/kg, po measured upto 96 hrs by HPLC-MS/MS analysis; type: ADME, organism-based; design: dose 50 mg/kg, time < 96 hrs, route po; conditions: in vivo
[4] = Oral bioavailability in ICR mouse at 50 mg/kg measured upto 96 hrs by HPLC-MS/MS analysis; type: ADME, organism-based; conditions: in vivo
[5] = Toxicity in Balb/c mouse assessed as effect on spleen at 50 mg/kg by hematoxylin and eosin staining based histopathological analysis; type: organism-based; conditions: in vivo
MDA-MB-231 [6] = assay: Induction of apoptosis in human MDA-MB-231 cells assessed as late apoptotic cells at 1 uM measured after 48 hrs by annexin V-FITC and PI staining based flow cytometry analysis (reference value: 3.1%); type: functional
MDA-MB-231 [7] = assay: Induction of apoptosis in human MDA-MB-231 cells assessed as early apoptotic cells at 1 uM measured after 48 hrs by annexin V-FITC and PI staining based flow cytometry analysis (reference value: 6.7%); type: functional
[8] = target: T1, Signal transducer and activator of transcription 3 (Homo sapiens, UniProt P40763); assay: Inhibition of STAT3 in human DU-145 cells assessed as downregulation of Bcl-2 expression at upto 10 uM measured after 24 hrs; type: cell-based
T1 sequence (P40763 whole entry): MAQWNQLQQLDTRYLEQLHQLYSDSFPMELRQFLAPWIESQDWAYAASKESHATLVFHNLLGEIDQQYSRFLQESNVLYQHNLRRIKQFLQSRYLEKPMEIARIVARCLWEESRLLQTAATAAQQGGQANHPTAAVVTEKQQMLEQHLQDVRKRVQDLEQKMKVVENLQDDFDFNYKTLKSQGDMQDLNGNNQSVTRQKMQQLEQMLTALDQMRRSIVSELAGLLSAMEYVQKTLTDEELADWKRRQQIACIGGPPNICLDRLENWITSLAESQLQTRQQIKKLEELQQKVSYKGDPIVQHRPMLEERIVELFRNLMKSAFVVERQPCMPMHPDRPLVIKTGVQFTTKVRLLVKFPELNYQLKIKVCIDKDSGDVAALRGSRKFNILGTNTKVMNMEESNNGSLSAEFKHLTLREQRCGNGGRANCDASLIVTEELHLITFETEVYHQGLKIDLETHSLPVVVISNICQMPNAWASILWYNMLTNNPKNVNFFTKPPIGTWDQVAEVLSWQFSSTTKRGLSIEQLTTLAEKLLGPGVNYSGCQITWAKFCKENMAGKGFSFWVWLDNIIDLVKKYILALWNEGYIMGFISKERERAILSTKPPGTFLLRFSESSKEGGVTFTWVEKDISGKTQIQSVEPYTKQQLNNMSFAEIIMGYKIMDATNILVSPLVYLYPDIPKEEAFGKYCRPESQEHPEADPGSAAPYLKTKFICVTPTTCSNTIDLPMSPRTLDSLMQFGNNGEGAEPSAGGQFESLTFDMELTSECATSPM

DU-145 [9] = assay: Antitumor activity against human DU-145 cells xenografted in Balb/c nude mouse model assessed as reduction in phosphorylated STAT3 at Y705 residue by immunoblotting analysis; type: functional, cell-based
[10] = Volume of distribution at steady state in ICR mouse at 5 mg/kg, iv measured upto 96 hrs by HPLC-MS/MS analysis; type: ADME, organism-based; conditions: in vivo, read-out: Vdss
MDA-MB-231 [11] = assay: Induction of apoptosis in human MDA-MB-231 cells assessed as cell apoptotic percentage at 10 uM measured after 48 hrs by annexin V-FITC and PI staining based flow cytometry analysis relative to control; type: functional
HEK-Blue IL-6 = assay: Inhibition of IL-6/JAK/STAT3 signalling pathway in HEK-Blue IL-6 cells at 10 uM incubated for 16 hrs by QUANTI-blue assay relative to control; type: cell-based; conditions: Homo sapiens
DU-145 [12] = assay: Induction of apoptosis in human DU-145 cells assessed as late apoptotic cells at 10 uM measured after 48 hrs by annexin V-FITC and PI staining based flow cytometry analysis (reference value: 2.0%); type: functional
[13] = Clearance in ICR mouse at 5 mg/kg, iv measured upto 96 hrs by HPLC-MS/MS analysis; type: ADME, organism-based; conditions: in vivo
[14] = Solubility of compound in water incubated for 10 mins; type: physicochemical
[15] = target: T1, Signal transducer and activator of transcription 3; assay: Inhibition of STAT3 in human DU-145 cells assessed as downregulation of c-myc expression at upto 10 uM measured after 24 hrs; type: cell-based
[16] = Toxicity in Balb/c mouse assessed as effect on kidney at 50 mg/kg by hematoxylin and eosin staining based histopathological analysis; type: organism-based; conditions: in vivo
[17] = target: T1, Signal transducer and activator of transcription 3; assay: Inhibition of STAT3 dimerization in human DU-145 cells assessed as increase in amount of STAT3 monomer at upto 10 uM measured after 12 hrs; type: cell-based
DU-145 [18] = assay: Induction of apoptosis in human DU-145 cells assessed as induction of PARP cleavage at upto 10 uM measured after 48 hrs by […]; type: functional, cell-based
[19] = Toxicity in Balb/c mouse assessed as effect on heart at 50 mg/kg by hematoxylin and eosin staining based histopathological analysis; type: organism-based; conditions: in vivo
[20] = MRT (0 to t) in ICR mouse at 50 mg/kg, po measured upto 96 hrs by HPLC-MS/MS analysis; type: ADME, organism-based; conditions: in vivo
[21] = Tmax in ICR mouse at 50 mg/kg, po measured upto 96 hrs by HPLC-MS/MS analysis; type: ADME, organism-based; conditions: in vivo
[22] = Drug concentration in ICR mouse plasma at 50 mg/kg, po measured after 2 to 8 hrs; type: ADME, organism-based; conditions: in vivo, time 2-8 hrs
DU-145 [23] = assay: Induction of apoptosis in human DU-145 cells assessed as cell apoptotic percentage at 10 uM measured after 48 hrs by annexin V-FITC and PI staining based flow cytometry analysis relative to control; type: functional
[24] = target: T1, Signal transducer and activator of transcription 3; assay: Inhibition of STAT3 phosphorylation at Tyr705 residue in human MDA-MB-231 cells incubated for 24 hrs by Western blot analysis; type: cell-based; conditions: dose <= 10.0 µM
DU-145 [25] = assay: Induction of apoptosis in human DU-145 cells assessed as late apoptotic cells at 5 uM measured after 48 hrs by annexin V-FITC and PI staining based flow cytometry analysis (reference value: 2.0%); type: functional
MDA-MB-231 [26] = assay: Induction of apoptosis in human MDA-MB-231 cells assessed as induction of PARP cleavage at upto 10 uM measured after 48 hrs by […]; type: functional, cell-based
MDA-MB-231 [27] = assay: Induction of cell cycle arrest in human MDA-MB-231 cells assessed as accumulation of cells at G0/G1 phase measured after 24 hrs by PI staining based flow cytometry analysis; type: functional; conditions: dose <= 10.0 µM
DU-145 [28] = assay: Induction of apoptosis in human DU-145 cells assessed as late apoptotic cells at 1 uM measured after 48 hrs by annexin V-FITC and PI staining based flow cytometry analysis (reference value: 2.0%); type: functional
[29] = AUC (0 to infinity) in ICR mouse at 5 mg/kg, iv measured upto 96 hrs by HPLC-MS/MS analysis; type: ADME, organism-based; design: dose 5 mg/kg, time < 96 hrs, route iv; conditions: in vivo
[30] = Clearance in ICR mouse at 50 mg/kg, po measured upto 96 hrs by HPLC-MS/MS analysis; type: ADME, organism-based; conditions: in vivo
DU-145 [31] = assay: Induction of apoptosis in human DU-145 cells measured after 48 hrs by annexin V-FITC and PI staining based flow cytometry analysis; type: functional, cell-based; conditions: dose <= 10.0 µM
[32] = Volume of distribution at steady state in ICR mouse at 50 mg/kg, po measured upto 96 hrs by HPLC-MS/MS analysis; type: ADME, organism-based; conditions: in vivo
[33] = Half life in ICR mouse at 50 mg/kg, po measured upto 96 hrs by HPLC-MS/MS analysis; type: ADME, organism-based; conditions: in vivo
HCT-116 = assay: Antiproliferative activity against human HCT-116 cells assessed as inhibition of cell growth measured after 96 hrs by MTT assay; type: functional, cell-based; conditions: HCT-116, 96 h
[34] = target: T1, Signal transducer and activator of transcription 3; assay: Inhibition of 5-carboxyfluorescein-GY(PO3H2)LPQTV-NH2 peptide probe binding to human STAT3 SH2 domain preincubated for 30 mins followed by probe addition and measured after 1 hr by fluorescence polarization assay
[35] = Half life in ICR mouse at 5 mg/kg, iv measured upto 96 hrs by HPLC-MS/MS analysis; type: ADME, organism-based; conditions: in vivo
MDA-MB-231 [36] = assay: Antiproliferative activity against human MDA-MB-231 cells assessed as inhibition of cell growth at 10 uM measured after 96 hrs by MTT assay relative to control; type: functional
[37] = Metabolic stability in mouse liver microsomes assessed as half life in presence of NADPH/UDPGA; type: ADME, Microsome
[38] = target: T1, Signal transducer and activator of transcription 3; assay: Inhibition of STAT3 phosphorylation at Tyr705 residue in human DU-145 cells incubated for 24 hrs by Western blot analysis; type: cell-based; conditions: dose <= 10.0 µM

Which results are given for `CN1CCN(c2cc3c(cc2Nc2nnc(-c4ccc(C(F)(F)F)cc4)s2)nc(-c2ccc(F)cc2)n3C2CC2)CC1`?
Cmax [1]: 667 ng/mL; AUC(0-t) at 96 h [2]: 3430 ng·h/mL; AUC(0-t) at 96 h [3]: 17800 ng·h/mL; bioavailability [4]: 52%; Activity [5]: Non-Toxic; Activity (MDA-MB-231 [6]): 5.1%; Activity (MDA-MB-231 [7]): 5.9%; inhibition [8]: Active; Activity (DU-145 [9]): Active; Vd [10]: 19 L/kg; Activity (MDA-MB-231 [11]): 79.3%; inhibition (HEK-Blue IL-6): 101%; Activity (DU-145 [12]): 45.6%; clearance [13]: 24.2 mL/min/kg; solubility at 10 min [14]: 1.04 µg/mL (≈ 1.75 µM); inhibition [15]: Active; Activity [16]: Non-Toxic; inhibition [17]: Active; Activity (DU-145 [18]): Active; Activity [19]: Non-Toxic; MRT last at 96 h [20]: 17.1 h; Tmax [21]: 4.67 h; Cp [22]: 771 ng/mL; Activity (DU-145 [23]): 79.6%; inhibition [24]: Dose-Dependent Effect; Activity (DU-145 [25]): 13.9%; Activity (MDA-MB-231 [26]): Active; Activity (MDA-MB-231 [27]): Dose-Dependent Effect; Activity (DU-145 [28]): 2.4%; AUC(0-inf) [29]: 3450 ng·h/mL; CL/F [30]: 46.8 mL/min/kg; Activity (DU-145 [31]): Dose-Dependent Effect; Vdss [32]: 40.17172 L/kg; half-life [33]: 9.94 h; IC50 (HCT-116): 2.19 µM; IC50 [34]: 16 µM; half-life [35]: 9 h; inhibition at 10 µM (MDA-MB-231 [36]): 90.1%; half-life [37]: 6.28 h; inhibition [38]: Dose-Dependent Effect
